According to ChEMBL document CHEMBL3120142 (J Med Chem, 2014):

Columns and labels:
[1] = tested on: Influenza A virus; assay: microbe, parasite or virus in culture; conditions: A/Berlin/55/08(H1N1), MDCK, 48 h
[2] = tested on: Influenza A virus; conditions: mdck

| SMILES | EC50 [1] [µM] | EC50 [2] [µM] |
| --- | --- | --- |
| CCC(CC)O[C@@H]1C=C(C(=O)O)C[C@H](NC(C)=N)[C@H]1NC(C)=O | 4.82 |  |
| CCC(CC)O[C@@H]1C=C(C(=O)O)C[C@H](NC(=N)N)[C@H]1NC(C)=O | 3.31 |  |
| CCC(CC)O[C@@H]1C=C(C(=O)O)C[C@H](N)[C@H]1NC(C)=O [OSELTAMIVIR CARBOXYLATE] | > 100 |  |
| CC(=O)N[C@H]1[C@H]([C@H](O)[C@H](O)CO)OC(C(=O)O)=C[C@@H]1NC(=N)N [ZANAMIVIR] |  | 1.22 |
